Assay results from article PMC10541190 (The Journal of Clinical Investigation, 2023).
“And” between values parts separate entries of the source, which are not always exact repeats. Identical values can stand only once. Like-named read-outs stand apart in the source and are kept apart here. [ ]: non-standard residue; d: D form. Nle = CCCC[C@H](N)C(=O)O

Experiments:
[1] = in vitro; settings: human, U-87 MG cell viability (%)
[2] = test system: SARS-CoV-2 (USA-WA1/2020); assay: microbe, parasite or virus in culture; format: cell-based
[3] = test system: Vero cells
[4] = in vitro; settings: African green monkey
[5] = in vitro; settings: human, Huh7 cell viability (%)

Compound	viability at 3.33 µM [1] [%]	viability at 10 µM [1] [%]	SARS-CoV-2 infection (%) ([2]; 20 μM)	Cell viability (%) ([3]; 20 μM)	viability at 20 µM ([4]; Cell viability (%), 20 μM) [%]	viability at 0.37 µM [1] [%]	viability at […] [1]	SARS-CoV-2 infection (%) ([2]; 0.625 μM)	SARS-CoV-2 infection (%) ([2]; 1.25 μM)	SARS-CoV-2 infection (%) ([2]; 5 μM)	Cell viability (%) ([3]; 0.625 μM)	Cell viability (%) ([3]; 1.25 μM)	Cell viability (%) ([3]; 5 μM)	viability at 0.625 µM ([4]; Cell viability (%), 0.625 μM) [%]	viability at 1.25 µM ([4]; Cell viability (%), 1.25 μM) [%]	viability at 5 µM ([4]; Cell viability (%), 5 μM) [%]	other results
[N-]=[N+]=CC(=O)OC[C@H](N)C(=O)O [Aza-serine]	94.5	84	0.00%	91.48% and 89.75%	87.1	–	–	–	–	–	–	–	–	–	–	–	SARS-CoV-2 infection (%) ([2]; 0.2469 μM): 107.69% and 86.64%; SARS-CoV-2 infection (%) ([2]; 2.2222 μM): 7.01% and 8.09%; SARS-CoV-2 infection (%) ([2]; 6.6667 μM): 2.70% and 1.62%; Cell viability (%) ([3]; 0.2469 μM): 103.32%; Cell viability (%) ([3]; 2.2222 μM): 96.19% and 95.62%; Cell viability (%) ([3]; 6.6667 μM): 94.50% and 92.95%; viability at 0.2469 µM ([4]; Cell viability (%), 0.2469 μM): 87.9%; viability at 2.2222 µM ([4]; Cell viability (%), 2.2222 μM): 89.7%; viability at 6.6667 µM ([4]; Cell viability (%), 6.6667 μM): 92.2%
CNc1ccc2oc(C[C@H]3O[C@@]4(CC[C@H]3C)O[C@H]([C@H](C)C(=O)c3ccc[nH]3)[C@H](C)C[C@H]4C)nc2c1C(=O)O [Calci-mycin]	66.8	58.2	0.00337%	81.29%	86.9	103	82.3% and 103%	17.53% and 16.18% and 16.52%	0.00337%	0.00337%	91.36% and 94.20%	98.44% and 96.45%	93.68% and 94.54%	89.2	98.6	93.5	–
O=C1NCN(c2ccccc2)C12CCN(CCCC(c1ccc(F)cc1)c1ccc(F)cc1)CC2 [Fluspiri-lene]	102	93.8	3.37% and 2.70% and 4.04%	83.60% and 85.38%	85.1	97	97.8% and 97.9%	121.35% and 117.98% and 101.12%	111.24% and 114.61% and 104.49%	114.61% and 94.38% and 111.24%	103.85% and 102.73%	105.07% and 105.49%	94.12% and 91.52%	105	108	94	–
CO[C@@H]1[C@@H](O[C@@H]2O[C@H](C)[C@@H](O[C@H]3C[C@@](C)(O)[C@@H](OC(=O)CC(C)C)[C@H](C)O3)[C@H](N(C)C)[C@H]2O)[C@@H](CC=O)C[C@@H](C)[C@@H](O)/C=C/C=C/C[C@@H](C)OC(=O)C[C@H]1OC(C)=O [Josa-mycin]	91.6	100	8.09% and 10.77%	–	–	90.4	91.6% and 95.3%	–	–	–	–	–	–	–	–	–	SARS-CoV-2 infection (%) [2]: 107.69% and 101.94%; SARS-CoV-2 infection (%) ([2]; 2.22 μM): 48.50% and 53.93%; SARS-CoV-2 infection (%) ([2]; 6.67 μM): 16.19% and 21.54%; Cell viability (%) ([3]; 2.22 μM): 93.52% and 91.16%; Cell viability (%) ([3]; 6.67 μM): 93.20% and 88.03%; viability at 0.247 µM ([4]; Cell viability (%)): 102%; viability at 20 µM ([4]; Cell viability (%)): 89.7%; viability at 2.22 µM ([4]; Cell viability (%), 2.22 μM): 96.9%; viability at 6.67 µM ([4]; Cell viability (%), 6.67 μM): 93%
CO[C@@H]1[C@@H](O[C@@H]2O[C@H](C)[C@@H](O[C@H]3C[C@@](C)(O)[C@@H](OC(=O)CC(C)C)[C@H](C)O3)[C@H](N(C)C)[C@H]2O)[C@@H](CC=O)C[C@@H](C)[C@@H](O)/C=C/C=C/C[C@@H](C)OC(=O)C[C@H]1OC(C)=O [Josamycin]	–	–	–	–	–	–	–	–	–	–	–	–	–	–	–	–	EC50 ([2]; Severe acute respiratory syndrome coronavirus 2, Vero, 24 h, read-out: SARS-CoV-2 EC50): 2.4 µM; CC50 [4]: > 20 µM; viability at 0.37 µM [5]: 94.1%; viability at 3.33 µM [5]: 97.2%; viability at 10 µM [5]: 98.2%; viability at […] [5]: 96.6% and 93.2%
CN(C)C(=O)C(CCN1CCC(O)(c2ccc(Cl)cc2)CC1)(c1ccccc1)c1ccccc1 [Lopera-mide]	101	97.5	–	–	–	98.7	100% and 98.5%	–	–	–	–	–	–	–	–	–	Cell viability (%) ([3]; African green monkey, 20 µM): 99.64%; viability at 0.625 µM ([4]; Cell viability (%)): 115%; viability at 1.25 µM ([4]; Cell viability (%)): 121%; viability at 5 µM ([4]; Cell viability (%)): 105%; viability at 20 µM ([4]; Cell viability (%)): 98.5%
CN(C)C(=O)C(CCN1CCC(O)(c2ccc(Cl)cc2)CC1)(c1ccccc1)c1ccccc1 [Loperamide]	–	–	–	–	–	–	–	–	–	–	–	–	–	–	–	–	CC50 [4]: > 20 µM; viability at 0.123 µM [5]: 92.4%; viability at 0.37 µM [5]: 91.8%; viability at 3.333 µM [5]: 88.9%; viability at 10 µM [5]: 68.3%
O[C@H]1[C@H]2c3cc4c(cc3CN3CCC(=C[C@@H]1O)[C@H]23)OCO4 [Lyco-rine]	–	–	0.00337%	88.99% and 91.05%	83	–	–	7.08% and 5.06% and 8.76%	0.34% and 0.40% and 0.24%	0.00337%	98.69%	103.60% and 104.02%	84.99% and 87.96%	93.8	97.9	83	–
CC[C@@]1([C@@H]2O[C@@H]([C@H]3O[C@@](O)(CO)[C@H](C)C[C@@H]3C)C[C@@H]2C)CC[C@H]([C@]2(C)CC[C@]3(C[C@H](O)[C@@H](C)[C@@H]([C@@H](C)[C@@H](OC)[C@H](C)C(=O)O)O3)O2)O1 [Monen-sin]	78.7	79.7	0.0337%	97.54% and 96.71%	98.8	82	79.2% and 83.3%	74.16% and 84.27% and 91.01%	33.71% and 60.67% and 53.93%	0.0742% and 0.09% and 0.07%	106.13% and 103.45%	110.73% and 112.93%	95.75% and 98.96%	103	113	100	–
CC(C)(C)NCC(O)c1ccc(O)c(CO)c1 (stereo not shown) [Salbuta-mol]	–	–	105.49% and 89.01%	–	–	–	–	85.71% and 108.79% and 115.38%	128.57% and 98.90%	92.31% and 118.68% and 115.38%	–	–	–	–	–	–	–
O=C(CCCN1CCC2(CC1)C(=O)NCN2c1ccccc1)c1ccc(F)cc1 [Spiperone]	–	–	–	–	–	–	–	–	–	–	–	–	–	–	–	–	CC50 [4]: > 20 µM; viability at 0.37 µM [5]: 99.5%; viability at 3.33 µM [5]: 79.2%; viability at 10 µM [5]: 75.7%; viability at […] [5]: 97% and 99.9%
CC(C)(C)c1cc(C=C(C#N)C#N)cc(C(C)(C)C)c1O [Tyrphos-tin A9]	–	–	9.10% and 6.07% and 8.43%	97.68% and 97.70%	91.5	–	–	101.12% and 121.35% and 124.72%	131.46% and 128.09% and 114.61%	107.87% and 117.98% and 101.12%	112.22% and 113.82%	118.35% and 120.78%	96.34%	107	111	96.3	–
Ac-Leu-Leu-[Nle]-aldehyde	–	–	2.73% and 1.37% and 0.00%	–	–	–	–	–	–	–	–	–	–	–	–	–	CC50 [3]: > 20 µM; Cell viability (%) ([3]; 0.25 μM): 91.85%; Cell viability (%) ([3]; 0.74 μM): 90.53%; Cell viability (%) ([3]; 6.67 μM): 98.46%
Aurothioglucose	–	–	–	–	–	–	–	–	–	–	–	–	–	–	–	–	CC50 [3]: > 20 µM
Penitrem A	–	–	6.40% and 7.08% and 9.44%	–	–	–	–	91.01% and 104.49% and 97.75%	111.24% and 101.12% and 94.38%	117.98% and 128.09% and 111.24%	–	–	–	–	–	–	–
